Data published in patent US7214495B2, “Screening method” (Takeda Pharmaceutical Company Limited, priority 2002, dated 2007).

Columns and labels:
[1] = system: p44/42 MAP kinase in MIN6 cells; assay: MAP kinase activation (western blot) in MIN6 cells; type: cell-based, mouse; details: PD98059 50 μM during preincubation/incubation; 5 minutes
Procedure: The medium used was 4.5 g/l of glucose-containing Dulbecco's Modified Eagle Medium (DMEM, Invitrogen, Inc.) supplemented with 15% fetal calf serum (ThermoTrace, Inc.), 5.5 μM 2-mercaptethanol (Invitrogen, Inc.), 20 mM HEPES pH 7.3, 100 U/ml penicillin and 100 μg/ml streptomycin. The mouse pancreatic β cell line MIN6 cells were plated in a 12-well plate at a density of 2×10^5/well and incubated overnight. On the following morning, the medium was exchanged and incubation was continued overnight. The medium was again exchanged on the following morning. After incubation for 3 hours, preincubation was carried out in 22 mM glucose-containing KRBH for an hour. Various fatty acids were dissolved in KRBH (22 mM glucose) at a density of 10 μM followed by incubation for 2.5 minutes (or 5 minutes). MAPK inhibitor (PD98059) was added to KRBH in a concentration of 50 μM during the preincubation/incubation. After lysis/extraction in a sample buffer (TEFCO, Inc.), the cells were separated on SDS-PAGE and analyzed by western blotting using PhosphoPlus p44/42 MAP kinase (Thr202/Tyr204) Antibody Kit (Cell Signaling Technology, Inc.). […] The activation of MAPK occurred by the fatty acids showing the agonist activity in MIN6 as well as in the GPR40-expressed CHO cells. Thus, it was strongly supported that GPR40 would take part in MIN6 stimulation of fatty acids at least in part.

[2] = system: mouse GPR40-GFP fusion protein; assay: Expression of mouse GPR40-GFP fusion protein in CHO cells after siRNA introduction (enzyme immunoassay); type: cell-based; details: siRNA 2.86 pmols/0.5 μl or 8.57 pmols/1.5 μl, one day
Procedure: Mouse GPR40-GFP fusion protein-expressed CHO cells prepared by publicly known methods were plated in a 96-well plate at a density of 3×10^4/well, followed by incubation for a day. The siRNA (Dharmacon, Inc.) having various sequences, which was prepared according to the report by Elbasir et al. (Nature 411 (6836), 494–498 (2001)) using HVJ Envelope VECTOR KIT GenomONE™ (Ishihara Sangyo Kaisha, LTD.), was introduced into the cells (in a concentration of 2.86 pmols/0.5 μl or 8.57 pmols/1.5 μl), incubation followed for further one day. The expression level of mouse GPR40-GFP was detected by enzyme immunoassay as shown below. After the culture supernatant was discarded and the cells were washed with HBSS (Invitrogen), the cells were immobilized on 0.01% glutaraldehyde (Wako Pure Chemical) for 5 minutes, followed by blocking with 2% BSA-containing PBS (Takara Shuzo). Anti-GFP monoclonal antibody 3E6 (Nippon Gene) diluted to 500-fold was added to the cells. After incubation at room temperature for 2 hours, the cells were washed and HRP-labeled anti-mouse IgG antibody (ICN) diluted to 500-fold was added thereto followed by incubation at room temperature for 2 hours. After washing, TMB Microwell peroxidase substrate (Funakoshi) was added to the cells. After incubation for 30 minutes, sulfuric acid was added to stop the color-forming reaction and absorbance was measured at 450 nm.

[3] = system: mouse GPR40 mRNA; assay: Mouse GPR40 mRNA expression in MIN6 after siRNA introduction; type: cell-based; details: 2 days after introduction; vs random sequence siRNA
Procedure: MIN6 cells were plated in a 24-well plate and incubated for a day. Based on the method of EXAMPLE 18, m40i103 or Scramble II duplex siRNA, which was a random sequence siRNA, was then introduced using HVJ Envelope VECTOR KIT GenomONE. After incubation for 2 days, the total RNA of the same cells was prepared in a manner similar to EXAMPLE 7, using Isogen (Nippon Gene K. K.), following the manual attached. Using as a primer 100 ng of random hexamer based on 1 μg of the resulting total RNA, cDNA was synthesized using SuperScriptII reverse transcriptase (Invitrogen, Inc.), which was lysed in 40 μl of TE buffer (pH 8.0). The expression levels of mouse GPR40 and mouse GAPDH mRNA were determined by the method described in EXAMPLE 4.

Compound	effect on fatty acid-induced activation of MAPK in MIN6 [1]	expression level of GPR40-GFP (absorbance at 450 nm) [2]	expression of GPR40 mRNA (GPR40/GAPDH) in MIN6 [3]
COc1cccc(-c2cc(=O)c3ccccc3o2)c1N [PD98059]	almost suppressed		
m40i103: mouse GPR40-specific siRNA; sense strand SEQ ID NO: 34, antisense strand SEQ ID NO: 35 (sense CGCCAGUUGUGACAUUCUUNN; antisense NNGCGGUCAACACUGUAAGAA; chemistry not given here; one strand is listed 3' to 5')		reduction in the expression level	decreased
m40i256: mouse GPR40-specific siRNA; sense strand SEQ ID NO: 36, antisense strand SEQ ID NO: 37 (sense CUUGUUAGCCAUCCGAGGCNN; antisense NNGAACAATCGGTAGGCTCCG; chemistry not given here; one strand is listed 3' to 5')		reduction in the expression level	
